Measurements: ChEMBL document CHEMBL1146163 (Bioorg Med Chem Lett, 2006)
Calls of active or inactive are those of the source. No cut-off for these calls is given here.

Key:
[1] = tested on: Mus musculus; experiment: Reduction of glucose level in db/db mouse at 30 mg/kg, po after 7 days relative to control; format: functional; design: scale not given: the % may be the effect or the level left
[2] = tested on: Rattus norvegicus; experiment: Reduction of glucose level in ZDF rat at 1 mg/kg, po after 7 days relative to control; format: functional; design: scale not given: the % may be the effect or the level left
[3] = target: T1, Peroxisome proliferator-activated receptor alpha (Homo sapiens, UniProt Q07869); experiment: (§1) Displacement of tritium labeled ligand from human PPARalpha by SPA assay
T1 sequence (Q07869 whole entry): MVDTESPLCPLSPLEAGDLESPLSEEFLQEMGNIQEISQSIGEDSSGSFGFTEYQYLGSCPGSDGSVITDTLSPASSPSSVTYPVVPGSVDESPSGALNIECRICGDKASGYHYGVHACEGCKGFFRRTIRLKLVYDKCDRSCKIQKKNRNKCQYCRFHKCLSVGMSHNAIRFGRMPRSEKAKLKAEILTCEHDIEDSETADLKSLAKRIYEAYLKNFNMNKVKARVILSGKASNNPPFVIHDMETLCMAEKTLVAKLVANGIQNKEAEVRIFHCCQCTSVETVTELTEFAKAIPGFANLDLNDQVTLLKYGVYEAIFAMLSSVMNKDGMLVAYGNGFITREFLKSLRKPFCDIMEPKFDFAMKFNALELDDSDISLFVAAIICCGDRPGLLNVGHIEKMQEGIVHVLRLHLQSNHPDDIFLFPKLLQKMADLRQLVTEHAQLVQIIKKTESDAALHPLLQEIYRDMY

[4] = target: T2, Peroxisome proliferator-activated receptor alpha (Homo sapiens) (UniProt Q07869); experiment: Activity at human PPARalpha expressed in CV1 cells using GAL4 chimeric system relative to control; format: cell-based; conditions: CV-1
T2 sequence (whole entry): T1 sequence (Q07869 whole entry)

[5] = tested on: Rattus norvegicus; experiment: Effect on glucose normalization in po dosed ZDF rat after 7 days; format: functional; conditions: 168 h, read-out: MED
[6] = target: T3, Peroxisome proliferator-activated receptor gamma (Homo sapiens, UniProt P37231)
T3 sequence (P37231 whole entry): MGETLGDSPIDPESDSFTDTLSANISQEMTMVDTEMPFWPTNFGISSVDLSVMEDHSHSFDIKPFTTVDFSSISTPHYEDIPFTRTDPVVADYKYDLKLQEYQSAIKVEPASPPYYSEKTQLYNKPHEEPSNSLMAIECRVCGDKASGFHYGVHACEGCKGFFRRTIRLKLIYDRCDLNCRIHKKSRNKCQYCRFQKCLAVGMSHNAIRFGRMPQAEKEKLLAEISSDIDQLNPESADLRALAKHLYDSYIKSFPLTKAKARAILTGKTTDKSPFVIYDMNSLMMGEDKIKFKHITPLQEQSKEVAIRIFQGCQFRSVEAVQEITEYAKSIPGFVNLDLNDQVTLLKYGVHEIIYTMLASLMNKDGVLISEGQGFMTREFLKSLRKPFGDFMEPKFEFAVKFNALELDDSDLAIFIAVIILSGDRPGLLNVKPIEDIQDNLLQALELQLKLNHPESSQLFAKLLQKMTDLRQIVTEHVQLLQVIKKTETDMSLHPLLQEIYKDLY
Description: Displacement of tritium labeled ligand from human PPARgamma by SPA assay

[7] = tested on: Rattus norvegicus; experiment: Reduction of plasma triglyceride level in ZDF rat at 1 mg/kg, po after 7 days relative to control; format: functional; conditions: 168 h
[8] = Half life in F344 rat at 1 mg/kg, iv; format: ADME, organism-based; design: dose 1 mg/kg, route intravenous; conditions: in vivo
[9] = Volume of distribution in F344 rat at 1 mg/kg, iv; format: ADME, organism-based; design: dose 1 mg/kg, route intravenous; conditions: in vivo, read-out: Vdss
[10] = Clearance in F344 rat at 1 mg/kg, iv; format: ADME, organism-based; design: dose 1 mg/kg, route intravenous; conditions: in vivo
[11] = Tmax in F344 rat at 10 mg/kg, po; format: ADME, organism-based; design: dose 10 mg/kg, route oral; conditions: in vivo
[12] = Oral bioavailability in F344 rat at 10 mg/kg, po; format: ADME, organism-based; conditions: in vivo
[13] = Half life in Beagle dog at 1 mg/kg, iv; format: ADME, organism-based, Canis lupus familiaris; design: dose 1 mg/kg, route intravenous; conditions: in vivo
[14] = Volume of distribution in Beagle dog at 1 mg/kg, iv; format: ADME, organism-based, Canis lupus familiaris; design: dose 1 mg/kg, route intravenous; conditions: in vivo, read-out: Vdss
[15] = Clearance in Beagle dog at 1 mg/kg, iv; format: ADME, organism-based, Canis lupus familiaris; design: dose 1 mg/kg, route intravenous; conditions: in vivo
[16] = Tmax in Beagle dog at 10 mg/kg, po; format: ADME, organism-based, Canis lupus familiaris; design: dose 10 mg/kg, route oral; conditions: in vivo
[17] = Oral bioavailability in Beagle dog at 10 mg/kg, po; format: ADME, organism-based, Canis lupus familiaris; conditions: in vivo
[18] = target: T2, Peroxisome proliferator-activated receptor alpha (Homo sapiens); experiment: as §1
[19] = target: T4, Peroxisome proliferator-activated receptor delta (Homo sapiens, UniProt Q03181); experiment: Activity at PPARdelta
T4 sequence (Q03181 whole entry): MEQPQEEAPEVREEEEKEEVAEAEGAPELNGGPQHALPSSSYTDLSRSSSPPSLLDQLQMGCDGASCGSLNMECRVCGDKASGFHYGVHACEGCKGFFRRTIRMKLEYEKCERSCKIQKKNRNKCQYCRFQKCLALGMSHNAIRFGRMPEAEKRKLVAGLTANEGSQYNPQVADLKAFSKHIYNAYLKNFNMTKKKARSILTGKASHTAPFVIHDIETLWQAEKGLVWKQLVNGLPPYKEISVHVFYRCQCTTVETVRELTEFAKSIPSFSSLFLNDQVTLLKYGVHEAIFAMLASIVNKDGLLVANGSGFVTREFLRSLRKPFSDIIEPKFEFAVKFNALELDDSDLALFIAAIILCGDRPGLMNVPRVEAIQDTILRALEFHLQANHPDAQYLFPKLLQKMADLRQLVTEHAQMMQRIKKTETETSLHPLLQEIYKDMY

[20] = target: T5, Peroxisome proliferator-activated receptor delta (Homo sapiens) (UniProt Q03181); experiment: Activity at human PPARdelta expressed in CV1 cells by cotransfection assay relative to control; format: cell-based; conditions: CV-1
T5 sequence (whole entry): T4 sequence (Q03181 whole entry)

| SMILES | Activity [1] [%] | EC50 [3] [µM] | Efficacy [4] [%] | EC50 [6] [µM] | IC50 [6] [µM] | further results |
| --- | --- | --- | --- | --- | --- | --- |
| Cc1oc(-c2ccc(-c3ccccc3)cc2)nc1CCOc1ccc(CCC(=O)[O-])c2c1CCN(C(=O)OCC(C)(C)C)C2.[Na+] | 49 |  |  |  |  | Activity [2]: 23% |
| Cc1oc(-c2ccccc2)nc1CCOc1ccc(CCC(=O)O)c2c1CCN(C(=O)OCC(C)C)C2 | 27 | 1.72 | 40 | 0.008 | 0.017 | IC50 [3]: 3.42 µM; minimal effective dose [5]: 0.25 mg/kg |
| CCCOC(=O)N1CCc2c(OCCc3nc(-c4ccc(-c5ccccc5)cc4)oc3C)ccc(CCC(=O)[O-])c2C1.[Na+] | 41 |  |  |  |  | minimal effective dose [5]: 0.19 mg/kg; ED50 [7]: 0.24 mg/kg; half-life [8]: 5 h; Vd [9]: 0.59 L/kg; clearance [10]: 0.0822 L/h/kg; Tmax [11]: 1 h; bioavailability [12]: 35%; half-life [13]: 3.58 h; Vd [14]: 0.38 L/kg; clearance [15]: 0.0744 L/h/kg; Tmax [16]: 4 h; bioavailability [17]: 37% |
| Cc1oc(-c2ccc(-c3ccccc3)cc2)nc1CCOc1ccc(CCC(=O)O)c2c1CCN(C(=O)OCC(C)(C)C)C2 [listing 1 of 2 here] |  |  | 18 |  |  | Activity [18]: inactive; Efficacy [18]: < 20% |
| Cc1oc(-c2ccc(-c3ccccc3)cc2)nc1CCOc1ccc(CCC(=O)O)c(CNC(=O)OC(C)C)c1 |  |  | 52 |  |  |  |
| Cc1c(C)c2c(c(C)c1O)CCC(C)(COc1ccc(CC3SC(=O)NC3=O)cc1)O2 (stereo not drawn) |  |  | 0 |  |  | Activity [18]: inactive |
| CCCOC(=O)N1CCc2c(OCCc3nc(-c4ccccc4)oc3C)ccc(CCC(=O)[O-])c2C1.[Na+] |  |  |  |  |  | minimal effective dose [5]: 0.28 mg/kg |
| CCCOC(=O)N1CCc2c(OCCc3nc(-c4ccc(-c5ccccc5)cc4)oc3C)ccc(CCC(=O)O)c2C1 [listing 1 of 2 here] |  | 2.39 |  | 0.003 | 0.021 | EC50 [19]: 2.75 µM |
| Cc1oc(-c2ccccc2)nc1CCOc1ccc(C[C@H](Nc2ccccc2C(=O)c2ccccc2)C(=O)O)cc1 |  |  | 66 |  |  |  |
| CCCOC(=O)N1CCc2c(OCCc3nc(-c4ccccc4)oc3C)ccc(CCC(=O)O)c2C1 [listing 1 of 2 here] |  |  | 47 |  |  |  |
| CCCOC(=O)N1CCc2c(OCCc3nc(-c4ccc(-c5ccccc5)cc4)oc3C)ccc(CCC(=O)O)c2C1 [listing 2 of 2 here] |  |  | 27 |  |  | Activity [18]: inactive; Efficacy [20]: 36% |
| Cc1oc(-c2ccc(-c3ccccc3)cc2)nc1CCOc1ccc(CCC(=O)O)c2c1CCN(C(=O)OCC(C)(C)C)C2 [listing 2 of 2 here] |  |  |  | 0.009 | 0.033 |  |
| CC(C)(Oc1ccc(C(=O)c2ccc(Cl)cc2)cc1)C(=O)O [FENOFIBRIC ACID] |  | > 10 | 75 |  |  | IC50 [3]: > 10 µM |
| C#CCOC(=O)N1CCc2c(OCCc3nc(-c4ccccc4)oc3C)ccc(CCC(=O)O)c2C1 | 37 | 2.78 | 38 | 0.077 | 0.024 | IC50 [3]: 8.4 µM; EC50 [19]: 3.02 µM; Efficacy [20]: 65% |
| CCCOC(=O)N1CCc2c(OCCc3nc(-c4ccccc4)oc3C)ccc(CCC(=O)O)c2C1 [listing 2 of 2 here] | 62 | 0.561 |  | 0.012 | 0.011 | IC50 [3]: 4.68 µM |
| CN(CCOc1ccc(CC2SC(=O)NC2=O)cc1)c1ccccn1 (stereo not drawn) [ROSIGLITAZONE] | 29 |  |  |  |  | minimal effective dose [5]: 0.25 mg/kg |
